Data: patent publication US12240844B2 (Voronoi, Inc., priority 2019, dated 2025)
pIC50: −log10 of the molar value.

Columns and labels:
[1] = target: T1, human GST-DYRK1A (full length) (Homo sapiens, UniProt Q13627); assay: GST-DYRK1A enzyme inhibition, ADP-Glo kinase assay; assay type: biochemical; settings: read-out: DYRK1 IC50
T1 construct: purified human GST-DYRK1A (full length, Thermo scientifics) enzyme; GST; purchased Thermo scientifics
Summary of the method: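 Full-length human GST-DYRK1A (10 ng) incubated with 10 uM ATP and specific substrate for 1 h at 25° C in 40 mM Tris-HCl pH 7.4, 20 mM MgCl2, 0.5 mg/mL BSA, 50 uM DTT. ADP formation read by ADP-Glo luminescence; IC50 (nM) versus solvent control, triplicate.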

LRRK2 = LRRK2 (Homo sapiens, UniProt Q5S007); assay: LRRK2 enzyme inhibition, ADP-Glo kinase assay; assay type: biochemical; set-up: purchased Invitrogen PR8604B
LRRK2, sequence (Q5S007 970-2527 limits assumed): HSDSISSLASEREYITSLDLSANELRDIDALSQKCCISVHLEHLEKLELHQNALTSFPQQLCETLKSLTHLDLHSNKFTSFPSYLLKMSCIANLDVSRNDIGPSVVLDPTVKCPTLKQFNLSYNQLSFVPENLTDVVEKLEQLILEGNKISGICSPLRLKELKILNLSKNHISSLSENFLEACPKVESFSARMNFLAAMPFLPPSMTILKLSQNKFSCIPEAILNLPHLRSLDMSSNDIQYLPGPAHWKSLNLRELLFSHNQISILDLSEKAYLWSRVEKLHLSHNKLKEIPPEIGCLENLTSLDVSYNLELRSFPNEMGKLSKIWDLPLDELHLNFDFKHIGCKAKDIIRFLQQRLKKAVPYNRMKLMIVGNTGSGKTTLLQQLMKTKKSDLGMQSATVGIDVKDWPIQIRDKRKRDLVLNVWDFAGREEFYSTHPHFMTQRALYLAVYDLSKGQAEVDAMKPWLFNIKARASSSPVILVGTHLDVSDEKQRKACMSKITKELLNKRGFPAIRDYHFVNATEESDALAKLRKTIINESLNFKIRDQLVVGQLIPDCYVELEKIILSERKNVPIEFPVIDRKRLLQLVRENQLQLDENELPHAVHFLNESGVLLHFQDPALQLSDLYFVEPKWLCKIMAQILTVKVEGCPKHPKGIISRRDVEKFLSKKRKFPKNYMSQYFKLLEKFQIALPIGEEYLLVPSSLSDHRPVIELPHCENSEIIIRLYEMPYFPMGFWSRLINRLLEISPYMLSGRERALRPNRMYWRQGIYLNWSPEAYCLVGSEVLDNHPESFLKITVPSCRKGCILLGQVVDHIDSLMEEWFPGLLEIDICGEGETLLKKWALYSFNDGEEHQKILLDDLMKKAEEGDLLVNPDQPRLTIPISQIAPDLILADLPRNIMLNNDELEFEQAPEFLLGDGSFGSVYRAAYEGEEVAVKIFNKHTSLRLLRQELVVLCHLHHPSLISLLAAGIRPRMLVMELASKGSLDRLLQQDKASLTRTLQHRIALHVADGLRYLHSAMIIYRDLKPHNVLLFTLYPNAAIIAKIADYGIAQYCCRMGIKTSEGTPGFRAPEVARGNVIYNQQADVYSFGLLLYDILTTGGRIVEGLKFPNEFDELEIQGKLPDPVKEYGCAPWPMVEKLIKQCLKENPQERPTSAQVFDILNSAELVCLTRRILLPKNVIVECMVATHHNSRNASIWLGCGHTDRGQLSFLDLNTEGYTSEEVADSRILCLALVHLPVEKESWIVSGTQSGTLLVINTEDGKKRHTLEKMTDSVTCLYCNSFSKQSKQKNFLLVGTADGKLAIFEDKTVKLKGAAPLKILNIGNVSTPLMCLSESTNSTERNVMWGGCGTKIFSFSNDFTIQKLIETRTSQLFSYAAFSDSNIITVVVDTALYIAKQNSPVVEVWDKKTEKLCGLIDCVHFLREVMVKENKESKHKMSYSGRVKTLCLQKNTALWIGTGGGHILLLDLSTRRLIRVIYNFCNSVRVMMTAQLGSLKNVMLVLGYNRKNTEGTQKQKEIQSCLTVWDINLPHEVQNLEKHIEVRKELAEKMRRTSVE
Summary of the method: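 Purified human LRRK2 (25 ng) in 40 mM Tris-HCl pH7.4, 20 mM MgCl2, 0.5 mg/ml BSA, 50 μM DTT with 10 μM ATP and substrate ([…]), 2 h at 25° C. Final compound 50 to 0.000001024 μM, 12-point dilution. ADP-Glo luminescence vs solvent control; IC50 (nM).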

LRRK2 (G2019S) = LRRK2 (G2019S) (Homo sapiens, UniProt Q5S007, G2019S); assay: LRRK2 G2019S enzyme inhibition, ADP-Glo kinase assay; assay type: biochemical; set-up: purchased SignalChem L10-12GG
LRRK2 (G2019S), sequence (Q5S007 970-2527 G2019S limits assumed): as the sequence (Q5S007 970-2527 limits assumed) above, with G1050S counted along it
Summary of the method: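 Purified human LRRK2 G2019S (16 ng) with 25 μM ATP and 0.2 μg substrate, 2 h at 25° C in 40 mM Tris-HCl pH 7.4, 20 mM MgCl2, 0.5 mg/ml BSA, 50 μM DTT; compound at 12 final concentrations from 50 μM downward. ADP-Glo luminescence versus solvent control gave IC50 (nM).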

MDA-MB-231 cell line = assay: MDA-MB-231 cancer cell proliferation inhibition (Cell Titer-Glo); assay type: cell-based; settings: Homo sapiens, MDA-MB-231 triple-negative breast cancer cell line, 72 hours
Summary of the method: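 GI50 comes from CellTiter-Glo luminescence, read 10 min after reagent addition at RT, following 72 h compound treatment. Eleven concentrations were used (⅓ steps, highest 10 μM final) on 2000 cells/well. MDA-MB-231 and MDA-MB-468 were grown in DMEM, SHP-77 in RPMI.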

CCNc1cc(Nc2ccc(P3(=O)CCN(C4CC4)CC3)cc2OC)nc2[nH]cc(C(F)(F)F)c12 [Example 206, 1-cyclopropyl-4-(4-((4-(ethylamino)-3-(trifluoromethyl)-1H-pyrrolo[2,3-b]pyridin-6-yl)amino)-3-methoxyphenyl)-1,4-azaphosphinane 4-oxide]
pIC50 [1]: 6.00 to 6.52
pIC50 (LRRK2): 6.52 to 7.00

N#Cc1c[nH]c2nc(Nc3ccc(C(=O)N4CCC(N5CCOCC5)CC4)c4c3OCCO4)cc(C3CC3)c12 [Example 226, 4-cyclopropyl-6-((8-(4-morpholinopiperidine-1-carbonyl)-2,3-dihydrobenzo[b] [1,4]dioxin-5-yl)amino)-1H-pyrrolo[2,3-b]pyridine-3-carbonitrile]
pIC50 (LRRK2 (G2019S)): > 7.00
GI50 (MDA-MB-231 cell line): 301 to 1000 nM
pIC50 (LRRK2): > 7.00

COc1cc(S(=O)(=O)N2CCC(N3CCOCC3)CC2)ccc1Nc1cc(C2CC2)c2c(C#N)c[nH]c2n1 [Example 228, 4-cyclopropyl-6-((2-methoxy-4-((4-morpholinopiperidin-1-yl)sulfonyl)phenyl)amino)-1H-pyrrolo[2,3-b]pyridine-3-carbonitrile]
pIC50 (LRRK2 (G2019S)): > 7.00
GI50 (MDA-MB-231 cell line): 51 to 100 nM
pIC50 (LRRK2): > 7.00

O=C(c1ccc(Nc2cc(C3CC3)c3c(C(F)(F)F)c[nH]c3n2)c2c1CCO2)N1CC[C@@H](N2CCOCC2)C1 [Example 238, (R)-(7-((4-cyclopropyl-3-(trifluoromethyl)-1H-pyrrolo[2,3-b]pyridin-6-yl)amino)-2,3-dihydrobenzofuran-4-yl)(3-morpholinopyrrolidin-1-yl)methanone]
GI50 (MDA-MB-231 cell line): 301 to 1000 nM

CCNc1cc(Nc2ccc(C(=O)N3C[C@@H]4C[C@H]3CO4)c3c2OCCO3)nc2[nH]cc(C(F)(F)F)c12 [Example 44, ((1S,4S)-2-oxa-5-azabicyclo[2.2.1]heptan-5-yl)(8-((4-(ethylamino)-3-(trifluoromethyl)-1H-pyrrolo[2,3-b]pyridin-6-yl)amino)-2,3-dihydrobenzo[b] [1,4]dioxin-5-yl)methanone]
pIC50 [1]: > 7.00
GI50 (MDA-MB-231 cell line): 301 to 1000 nM
pIC50 (LRRK2): > 7.00

O=C(c1ccc(Nc2cc(C3CC3)c3c(C(F)(F)F)c[nH]c3n2)c2c1CCO2)N1CCOCC1 [Example 91, (7-((4-cyclopropyl-3-(trifluoromethyl)-1H-pyrrolo[2,3-b]pyridin-6-yl)amino)-2,3-dihydrobenzofuran-4-yl)(morpholino) methanone]
pIC50 (LRRK2 (G2019S)): 6.00 to 6.52
GI50 (MDA-MB-231 cell line): 301 to 1000 nM
pIC50 (LRRK2): 6.00 to 6.52

O=C(c1ccc(Nc2cc(C3CC3)c3c(C(F)(F)F)c[nH]c3n2)c2c1CCO2)N1CCC(N2CCOCC2)CC1 [Example 93, (7-((4-cyclopropyl-3-(trifluoromethyl)-1H-pyrrolo[2,3-b]pyridin-6-yl)amino)-2,3-dihydrobenzofuran-4-yl)(4-morpholinopiperidin-1-yl)mthanone]
pIC50 (LRRK2 (G2019S)): > 7.00
GI50 (MDA-MB-231 cell line): 301 to 1000 nM
pIC50 (LRRK2): > 7.00

COc1cc(S(=O)(=O)N2CCOCC2)ccc1Nc1cc(C2CC2)c2c(C(F)(F)F)c[nH]c2n1 [Example 222, 4-cyclopropyl-N-(2-methoxy-4-(morpholinosulfonyl)phenyl)-3-(trifluoromethyl)-1H-pyrrolo[2,3-b]pyridin-6-amine]
pIC50 (LRRK2 (G2019S)): 6.00 to 6.52
GI50 (MDA-MB-231 cell line): 301 to 1000 nM
pIC50 (LRRK2): 6.00 to 6.52

CNc1cc(Nc2ccc(C(=O)N3CCC(N4CCOCC4)CC3)c3c2OCCO3)nc2[nH]cc(C(F)(F)F)c12 [Example 160, (8-((4-(methylamino)-3-(trifluoromethyl)-1H-pyrrolo[2,3-b]pyridin-6-yl)amino)-2,3-dihydrobenzo [b] [1,4]dioxin-5-yl)(4-morpholinopiperidin-1-yl)methanone]
pIC50 [1]: 6.52 to 7.00
pIC50 (LRRK2 (G2019S)): > 7.00
pIC50 (LRRK2): > 7.00

CNc1cc(Nc2ccc(P3(=O)CCN(C4CC4)CC3)cc2OC)nc2[nH]cc(C#N)c12 [Example 146, 6-((4-(1-cyclopropyl-4-oxido-1,4-azaphosphinan-4-yl)-2-methoxyphenyl)amino)-4-(methylamino)-1H-pyrrolo[2,3-b]pyridine-3-carbonitrile]
pIC50 [1]: 6.00 to 6.52
GI50 (MDA-MB-231 cell line): 301 to 1000 nM
pIC50 (LRRK2): > 7.00

CCNc1cc(Nc2cc(F)c(S(=O)(=O)N3CCC(N4CCOCC4)CC3)cc2OC)nc2[nH]cc(C(F)(F)F)c12 [Example 266, N^4-ethyl-N^6-(5-fluoro-2-methoxy-4-((4-morpholinopiperidin-1-yl)sulfonyl)phenyl)-3-(trifluoromethyl)-1H-pyrrolo[2,3-b]pyridine-4,6-diamine]
pIC50 [1]: 6.00 to 6.52
pIC50 (LRRK2 (G2019S)): 6.52 to 7.00
GI50 (MDA-MB-231 cell line): 301 to 1000 nM

N#Cc1c[nH]c2nc(Nc3ccc(C(=O)N4CCOCC4)c4c3OCCO4)cc(C3CC3)c12 [Example 225, 4-cyclopropyl-6-((8-(morpholine-4-carbonyl)-2,3-dihydrobenzo[b] [1,4]dioxin-5-yl)amino)-1H-pyrrolo[2,3-b]pyridine-3-carbonitrile]
pIC50 (LRRK2 (G2019S)): > 7.00
GI50 (MDA-MB-231 cell line): 301 to 1000 nM
pIC50 (LRRK2): > 7.00

CCCNc1cc(Nc2ccc(C(=O)N3CCC(N4CCOCC4)CC3)c3c2OCCO3)nc2[nH]cc(C(F)(F)F)c12 [Example 162, (4-morpholinopiperidin-1-yl)(8-((4-(propylamino)-3-(trifluoromethyl)-1H-pyrrolo[2,3-b]pyridin-6-yl)amino)-2,3-dihydrobenzo[b] [1,4]dioxin-5-yl)methanone]
pIC50 [1]: 6.52 to 7.00
pIC50 (LRRK2 (G2019S)): > 7.00
pIC50 (LRRK2): > 7.00

CCNc1cc(Nc2ccc(C(=O)N3CCN(C4COC4)CC3)c3c2OCCO3)nc2[nH]cc(C(F)(F)F)c12 [Example 173, (8-((4-(ethylamino)-3-(trifluoromethyl)-1H-pyrrolo[2,3-b]pyridin-6-yl)amino)-2,3-dihydrobenzo[b] [1,4]dioxin-5-yl)(4-(oxetan-3-yl)piperazin-1-yl)methanone]
pIC50 [1]: > 7.00
GI50 (MDA-MB-231 cell line): 301 to 1000 nM
pIC50 (LRRK2): > 7.00

O=C(c1ccc(Nc2cc(C3CC3)c3c(C(F)(F)F)c[nH]c3n2)c2c1CCO2)N1CC[C@H](N2CCOCC2)C1 [Example 237, (S)-(7-((4-cyclopropyl-3-(trifluoromethyl)-1H-pyrrolo[2,3-b]pyridin-6-yl)amino)-2,3-dihydrobenzofuran-4-yl)(3-morpholinopyrrolidin-1-yl)methanone]
GI50 (MDA-MB-231 cell line): 301 to 1000 nM

CNc1cc(Nc2ccc(C(=O)N3CC[C@H](N4CCOCC4)C3)c3c2OCC3)nc2[nH]cc(C(F)(F)F)c12 [Example 217, (S)-(7-((4-(methylamino)-3-(trifluoromethyl)-1H-pyrrolo[2,3-b]pyridin-6-yl)amino)-2,3-dihydrobenzofuran-4-yl)(3-morpholinopyrrolidin-1-yl)methanone]
pIC50 [1]: > 7.00
GI50 (MDA-MB-231 cell line): 301 to 1000 nM
pIC50 (LRRK2): > 7.00

CCNc1cc(Nc2ccc(C(=O)N3CCN(C4COC4)CC3)c3c2OCC3)nc2[nH]cc(C(F)(F)F)c12 [Example 248, (7-((4-(ethylamino)-3-(trifluoromethyl)-1H-pyrrolo[2,3-b]pyridin-6-yl)amino)-2,3-dihydrobenzofuran-4-yl)(4-(oxetan-3-yl)piperazin-1-yl)methanone]
pIC50 [1]: > 7.00
pIC50 (LRRK2 (G2019S)): > 7.00
GI50 (MDA-MB-231 cell line): 301 to 1000 nM

CCNc1cc(Nc2ccc(C(=O)N3CCC(N4C[C@H]5C[C@@H]4CO5)CC3)c3c2OCC3)nc2[nH]cc(C(F)(F)F)c12 [Example 244, (4-((1R,4R)-2-oxa-5-azabicyclo[2.2.1]heptan-5-yl)piperidin-1-yl)(7-((4-(ethylamino)-3-(trifluoromethyl)-1H-pyrrolo[2,3-b]pyridin-6-yl)amino)-2,3-dihydrobenzofuran-4-yl)methanone]
pIC50 [1]: > 7.00
pIC50 (LRRK2 (G2019S)): > 7.00
GI50 (MDA-MB-231 cell line): 301 to 1000 nM

CNc1cc(Nc2ccc(S(=O)(=O)N3CCC(N4CCOCC4)CC3)cc2OC)nc2[nH]cc(C(F)(F)F)c12 [Example 184, N^6-(2-methoxy-4-((4-morpholinopiperidin-1-yl)sulfonyl)phenyl)-N^4-methyl-3-(trifluoromethyl)-1H-pyrrolo[2,3-b]pyridine-4,6-diamine]
pIC50 (LRRK2 (G2019S)): > 7.00
GI50 (MDA-MB-231 cell line): 301 to 1000 nM

COCCNc1cc(Nc2ccc(P3(=O)CCN(C4CC4)CC3)cc2OC)nc2[nH]cc(C#N)c12 [Example 148, 6-((4-(1-cyclopropyl-4-oxido-1,4-azaphosphinan-4-yl)-2-methoxyphenyl)amino)-4-((2-methoxyethyl)amino)-1H-pyrrolo[2,3-b]pyridine-3-carbonitrile]
pIC50 [1]: 6.00 to 6.52
GI50 (MDA-MB-231 cell line): 301 to 1000 nM
pIC50 (LRRK2): > 7.00

O=C(c1ccc(Nc2cc(C3CC3)c3c(C(F)(F)F)c[nH]c3n2)c2c1OCO2)N1CCC(N2CCOCC2)CC1 [Example 49, (7-((4-cyclopropyl-3-(trifluoromethyl)-1H-pyrrolo[2,3-b]pyridin-6-yl)amino)benzo[d][1,3]dioxol-4-yl)(4-morpholinopiperidin-1-yl)methanone]
GI50 (MDA-MB-231 cell line): 301 to 1000 nM
pIC50 (LRRK2): > 7.00
